Data reported in patent US4020076A, “Novel phosphoryloxy-thiazoles” (priority 1974, dated 1977).
Where two headings read alike, the source gives them in different places.

Key:
Assay type in all cases: in vivo
Musca domestica = experiment: Topical application activity against Musca domestica; conditions: read-out: percent of mortality
Experimental: d. Activity against Musca domestica
This topical application test consisted of placing a microliter of an acetone solution of the test product on the dorsal thorax of Musca domestica after having been put to sleep with ether. The insects were held at 20° C and 50% relative humidity and were fed milk and water.

Aedes aegypti larvae = experiment: Activity against Aedes aegypti larvae; conditions: for mortality at 0.25 µg/mL: 0.25 mg/l (10^-3 ppm); for mortality at 2.5 µg/mL: 2.5 mg/l (10^-2 ppm); for mortality at 25 µg/mL: 25 mg/l
Experimental: f. Activity against Aedes aegypti larvae
10 Aedes aegypti larvae in the IV stage in 49 ml of water were added to 200 ml of water and 1 ml of an acetone solution of the test product was added thereto.

[1] = test system: Ditylenchus Myceliophagus; experiment: Acaricide activity, Ditylenchus Myceliophagus; conditions: 24 h, 0.1 g/l, read-out: Percent of mortality after 24 hours
Experimental: In an apparatus containing 10 ml of an aqueous solution of the test product, 0.5 ml of water containing about 2000 acariens of Ditylenchus Myceliophagus were added thereto and the percent of mortality was determined by a binocular magnifying glass after 24 hours.

[2] = 24 h, read-out: % of mortality after 24 H
[3] = 48 h, read-out: % of mortality after 48 H

CCOc1nc(OP(=S)(OC)OC)c(C#N)s1 [Compound C, 2-ethoxy-4-dimethoxythiophosphoryloxy-5-cyano-thiazole]
66.8%: mortality at 100 µg/mL [1]
97%: mortality at 500 ppm (Musca domestica; 24 h)
100%: mortality at 500 ppm (Musca domestica; 1 H, 500 ppm) | mortality at 2500 ppm (Musca domestica; 1 H, 2500 ppm) | mortality at 5000 ppm (Musca domestica; 1 H, 5000 ppm) | mortality at 2500 ppm (Musca domestica; 24 h) | mortality at 5000 ppm (Musca domestica; 24 h) | mortality at 25 µg/mL (Aedes aegypti larvae; [2]) | mortality at 25 µg/mL (Aedes aegypti larvae; [3])
0%: mortality at 0.25 µg/mL (Aedes aegypti larvae; [2]) | mortality at 2.5 µg/mL (Aedes aegypti larvae; [2]) | mortality at 0.25 µg/mL (Aedes aegypti larvae; [3]) | mortality at 2.5 µg/mL (Aedes aegypti larvae; [3])
